Earlier results as cited in US20090214511A1, “DIGESTIBLE COMPOSITIONS OF INULIN FOR MANAGING BLOOD GLUCOSE LEVELS” (priority 2008, published 2009).

weight gain and edema versus non-users (randomized controlled trial, users vs non-users)	SMILES	cumulative incidence of monotherapy failure at 5 years (Type 2 diabetes, initial choice of anti-diabetic drug, 5 years) [%]
more weight gain and edema	CN(CCOc1ccc(CC2SC(=O)NC2=O)cc1)c1ccccn1 (centres unmarked) [rosiglitazone]	–
–	CN(C)C(=N)N=C(N)N [metformin]	21
